Laboratory results reported in ChEMBL document CHEMBL1135231, “Syntheses and binding affinities of 6-nitroquipazine analogues for serotonin transporter. Part 2: 4-substituted 6-nitroquipazines” (Bioorg Med Chem Lett, 2002).
pKi: −log10 of the molar value.

Experiments:
[1] = molecular target: T1, Sodium-dependent serotonin transporter (Rattus norvegicus, UniProt P31652); experiment: Displacement of [3H]citalopram from rat cortical serotonin transporter (SERT)
[2] = molecular target: T1, Sodium-dependent serotonin transporter; experiment: Compound was evaluated for its ability to displace [3H]citalopram binding to the rat cortical Serotonin transporter

T1 sequence (P31652 whole entry): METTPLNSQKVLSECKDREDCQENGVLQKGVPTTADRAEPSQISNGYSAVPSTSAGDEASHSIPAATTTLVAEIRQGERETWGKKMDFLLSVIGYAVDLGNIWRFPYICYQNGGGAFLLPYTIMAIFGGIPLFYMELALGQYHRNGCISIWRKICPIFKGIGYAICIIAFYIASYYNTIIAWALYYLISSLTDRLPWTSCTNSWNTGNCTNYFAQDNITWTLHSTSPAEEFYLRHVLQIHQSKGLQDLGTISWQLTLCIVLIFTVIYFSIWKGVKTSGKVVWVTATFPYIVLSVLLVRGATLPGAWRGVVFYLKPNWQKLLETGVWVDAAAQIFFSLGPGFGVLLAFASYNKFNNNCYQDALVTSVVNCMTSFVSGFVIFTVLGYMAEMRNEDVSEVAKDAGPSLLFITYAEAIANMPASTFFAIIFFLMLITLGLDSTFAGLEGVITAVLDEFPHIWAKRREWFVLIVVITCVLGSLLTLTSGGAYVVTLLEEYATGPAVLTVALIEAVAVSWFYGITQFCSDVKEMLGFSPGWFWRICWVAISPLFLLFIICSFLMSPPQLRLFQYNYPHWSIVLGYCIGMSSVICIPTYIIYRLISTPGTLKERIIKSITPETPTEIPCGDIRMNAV

Row | pKi [1] | pKi [2] | SMILES
1 | 7.17 | – | O=[N+]([O-])c1ccc2nc(N3CCNCC3)cc(-c3cccs3)c2c1
2 | 8.76 | – | O=[N+]([O-])c1ccc2nc(N3CCNCC3)cc(I)c2c1
3 | 10.89 | – | CN(C)Cc1ccccc1Sc1ccc(I)cc1N
4 | – | 8.76 | O=CN1CCN(c2cc(Br)c3cc([N+](=O)[O-])ccc3n2)CC1
5 | 7.21 | – | O=[N+]([O-])c1ccc2nc(N3CCNCC3)cc(N3CCCC3)c2c1
6 | 10.52 | – | O=[N+]([O-])c1ccc2nc(N3CCNCC3)cc(Cl)c2c1
7 | 7.22 | – | O=[N+]([O-])c1ccc2nc(N3CCNCC3)cc(-c3ccccc3)c2c1
8 | 8.74 | – | C=Cc1cc(N2CCNCC2)nc2ccc([N+](=O)[O-])cc12

Row | SMILES | pKi [1] | pKi [2]
9 | O=[N+]([O-])c1ccc2nc(N3CCNCC3)cc(-c3ccco3)c2c1 | 8.28 | –
10 | O=[N+]([O-])c1ccc2nc(N3CCNCC3)cc(Br)c2c1 | 9.43 | –
11 | O=[N+]([O-])c1ccc2nc(N3CCNCC3)cc(Cc3ccccc3)c2c1 | 6.90 | –
12 | C=CCc1cc(N2CCNCC2)nc2ccc([N+](=O)[O-])cc12 | 8.78 | –
